Reference: patent US6872743B2, “sPLA2 inhibitors” (Eli Lilly and Company, priority 2000, dated 2005)

molecular target: T1, recombinant human secreted phospholipase A2 (Homo sapiens, UniProt P14555); assay: chromogenic assay for inhibitors of recombinant human secreted phospholipase A2; format: biochemical; details: diheptanoyl thio-PC substrate, pH 7.5, 40° C. for 30 minutes, absorbance at 405 nanometers, titrated in triplicate
T1 sequence (P14555 21-144): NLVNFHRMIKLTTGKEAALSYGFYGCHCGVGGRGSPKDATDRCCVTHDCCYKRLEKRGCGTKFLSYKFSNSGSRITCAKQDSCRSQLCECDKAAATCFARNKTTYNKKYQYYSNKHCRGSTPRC
Text: The following chromogenic assay procedure was used to identify and evaluate inhibitors of recombinant human secreted phospholipase A2. The assay described herein has been adapted for high volume screening using 96 well microtiter plates. A general description of this assay method is found in the article, “Analysis of Human Synovial Fluid Phospholipase A2 on Short Chain Phosphatidylcholine-Mixed Micelles: Development of a Spectrophotometric Assay Suitable for a Microtiterplate Reader”, by Laure J. Reynolds, Lori L. Hughes, and Edward A Dennis, Analytical Biochemistry, 204, pp. 190-197, 1992 (the disclosure of which is incorporated herein by reference):
A measured volume of racemic dipheptanoyl thio PC supplied in chloroform at a concentration of 100 mg/ml is taken to dryness and redissolved in 10 millimolar TRITON X-100™ nonionic detergent aqueous solution. Reaction Buffer is added to the solution, then DTNB to give the Reaction Mixture.
The reaction mixture thus obtained contains 1 mM diheptanoly thio-PC substrate, 0.29 mm Triton X-100™ detergent, and 0.12 mm DTMB in a buffered aqueous solution at pH 7.5.
• 1. Add 0.2 ml reaction mixture to all wells; • 2. Add 10 ul test compound (or solvent blank) to appropriate wells, mix 20 seconds; • 3. Add 50 nanograms of sPLA2 (10 microliters) to appropriate wells; • 4. Incubate plate at 40° C. for 30 minutes; • 5. Read absorbance of wells at 405 nanometers with an automatic plate reader.
Tests were done in triplicate. Typically, compounds were tested at a final concentration of 5 ug/ml. […] Lack of color development at 405 nanometers evidenced inhibition. Compounds initially found to be active were re-assayed to confirm their activity and, if sufficiently active, IC50 values were determined. […] In all cases, % inhibition measured at 405 nanometers generated by enzyme reactions containing inhibitors relative to the uninhibited control reactions was determined. […] IC50 values were determined by plotting log concentration versus inhibition values in the range from 10-90% inhibition.

Row | IC50 [µM] | Structure (SMILES)
1 | 0.012 | NC(=O)c1cccc2c1c1c(OCC(=O)O)cc3c(c1n2Cc1ccccc1)CCC3 [Example 2, (10-Benzyl-6-carbamoyl-1,2,3,10-tetraydrocyclopenta[a]carbazol-5-yloxy)acetic Acid]
2 | 0.015 | NC(=O)c1cccc2c1c1c(OCC(=O)O)cc3c(c1n2Cc1ccccc1)CCCC3 [Example 1, (11-Benzyl-7-carbamoyl-2,3,4,11-tetraydro-1H-benzo[a]carbazol-6-yloxy)acetic Acid]
3 | 0.0094 | COC(=O)COc1cc2ccccc2c2c1c1c(C(N)=O)cccc1n2Cc1ccccc1 [Example 3, (11-Benzyl-7-carbamoyl-11H-benzo [a]carbazol-6-yloxy)acetic acid methyl ester]
